We go through 78 compounds from the METLIN SMRT retention time set (Domingo-Almenara et al. 2019).

A short description of this series: gradient 5% acetonitrile 3 min, to 50% in 2 min, to 85% in 15 min, held 3 min, 100 µL/min. The note with it: column: Zorbax Extend-C18 2.1 x 50 mm; eluents: water / acetonitrile, 0.1% formic acid. In a few lines:
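Over 3 months, pure standards in mixtures of ~100 molecules were run by HPLC coupled to a quadrupole time-of-flight mass spectrometer in positive and negative ionization mode. The column was a Zorbax Extend-C18 (2.1 × 50 mm, 1.8 μm) at 100 μL/min, eluted with water and acetonitrile each holding 0.1% formic acid, with 40 μL dead and 900 μL dwell volumes. Retention time was determined from adduct peaks chosen by software and checked manually.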
`Cc1cccc(-n2ncc(C(N)=O)c2-n2cccc2)c1`: the RP-LC retention time was 775 s.

The compound `Cn1ncc2c(N3CCSCC3)nc(C(=O)NCc3ccccn3)nc21` came in with an RP-LC retention time of 592 s.

Consider `COC(=O)c1c(C)[nH]c(C(=O)N2CCC(CC(=O)NCCc3c(C)noc3C)CC2)c1C`, for which the RP-LC retention time turned out to be 654 s.

For the compound `CCC(C(=O)NCCCN1CCOCC1)n1c2ccccc2c2cnn(C)c(=O)c21` (stereo not drawn), the RP-LC retention time was 609 s.

Compound `O=C(NC1CCCC1)C1CCCN(c2nccn3nc(-c4ccccc4Cl)cc23)C1` (stereo not drawn) showed an RP-LC retention time of 915 s.

In turn, `COc1ccc(C)cc1NC(=O)C1CCN(S(C)(=O)=O)c2ccccc2O1` (stereo not drawn) came in with an RP-LC retention time of 994 s.

Compound `Cc1nc(S(=O)(=O)N2CCc3c(c(-c4nnc(-c5ccccc5F)o4)nn3C)C2)cn1C` had an RP-LC retention time of 703 s.

For `CCCN(Cc1ccc(Cl)cc1)Cc1cc(=O)n2cc(C)ccc2n1`, the RP-LC retention time worked out at 674 s.

For `CCNC(=O)C1CCCN(c2nc3ncn(CC(=O)N4CCc5ccccc5C4)c(=O)c3s2)C1` (stereo not drawn), the RP-LC retention time stood at 690 s.

With `CCOc1ccc(-c2cc3c(=O)n(Cc4nc(-c5ccccc5Cl)no4)ncn3n2)cc1`, the RP-LC retention time was 1150 s.

In the case of `Cc1cc(OCC(=O)Nc2cc(F)ccc2F)nc(N2CCN(c3ccccc3)CC2)n1`, the RP-LC retention time worked out at 900 s.

`CCc1c(C)nc2nc(-c3ccco3)nn2c1N1CCN(c2ccccn2)CC1` returned an RP-LC retention time of 616 s.

The compound `COc1ccc(-c2noc(C3CCCN3C(=O)c3ccoc3)n2)cc1` (stereo not drawn) came in with an RP-LC retention time of 835 s.

As to `Cc1cc(-c2nnc(-c3ccco3)o2)c(C)n1CC(=O)Nc1ccc(F)c(F)c1`, the RP-LC retention time was found to be 909 s.

For `COc1cccc(CNC(=O)Nc2ccc(-c3nc(-c4ccc(C)cc4C)co3)cc2)c1`, the RP-LC retention time stood at 1170 s.

`COC(=O)c1cc(OCC(=O)Nc2cc(F)ccc2F)c2cc(OC)ccc2n1` displayed an RP-LC retention time of 880 s.

The compound `CCc1cc(C(=O)NCc2ccccc2Cl)nc2ccnn12` registered an RP-LC retention time of 1000 s.

Consider `COc1cc(-c2noc(-c3nc(-c4ccccc4)no3)n2)cc(OC)c1OC`, for which the RP-LC retention time was 1070 s.

With `O=C(Nc1ccc(CC(=O)N2CCOCC2)cc1)c1ccco1`, the RP-LC retention time is 594 s.

Compound `CCOCCCNS(=O)(=O)c1cc(-c2ccno2)cs1` registered an RP-LC retention time of 796 s.

As for `Cc1cccc(C)c1N1CC(c2nc3ccccc3n2CC(=O)N2CCOCC2)CC1=O` (stereo not drawn), the RP-LC retention time is 652 s.

Regarding `CCc1nccn1Cc1nc(-c2ccc(Cl)cc2)no1`, the RP-LC retention time turned out to be 670 s.

`COc1ccc(-c2cn3c(CC(=O)N(Cc4ccco4)C4CCCC4)csc3n2)cc1OC` displayed an RP-LC retention time of 841 s.

Take `CCc1noc(NC(C)=O)c1-c1ccc(OC)c(S(=O)(=O)Nc2cc(OC)ccc2OC)c1`: the RP-LC retention time was 774 s.

Turning to `Cn1cc(C(CNC(=O)Nc2cccc(F)c2)c2cccnc2)c2ccccc21` (stereo not drawn), the RP-LC retention time came to 660 s.

Compound `O=C(C1CCCN(c2ncnc3c2nc2n3CCCCC2)C1)N1CCN(c2ccccc2)CC1` (stereo not drawn) displayed an RP-LC retention time of 803 s.

For the compound `CCc1nc(-c2csc(S(=O)(=O)N3CCC(C(=O)Nc4ccccc4F)CC3)c2)no1`, the RP-LC retention time was found to be 981 s.

`CCC(=O)Nc1nc(-c2ccc3c(c2)N(CC)C(=O)CO3)c(C)s1` showed an RP-LC retention time of 812 s.

The compound `O=C(Nc1ccc2c(c1)CN(C(=O)Nc1ccc3c(c1)OCCO3)CCO2)C1CC1` came in with an RP-LC retention time of 717 s.

In turn, `CSc1ccc(Cl)c(-c2nc(-c3ccc4c(c3)oc(=O)n4C)no2)c1` had an RP-LC retention time of 1170 s.

`CCNC(=O)C1CCN(c2nc3ncn(CC(=O)Nc4ccc(OCC)cc4)c(=O)c3s2)CC1` registered an RP-LC retention time of 662 s.

Compound `Cc1cc(-c2nnc(C3CCC3)o2)c(C)n1CC(=O)NCc1cccc(Cl)c1` showed an RP-LC retention time of 897 s.

Compound `Cc1ccc(N2C=NS(=O)(=O)c3cccnc32)cc1F` returned an RP-LC retention time of 815 s.

Compound `Cc1ccccc1Cn1c(CN2CCC(C(=O)N(C)Cc3ccco3)CC2)cc2ccccc21` showed an RP-LC retention time of 816 s.

Turning to `Cc1c(-c2nnc(C(=O)NCCCN3CCCCCC3)o2)oc2ccccc12`, the RP-LC retention time stood at 674 s.

`CCc1ccccc1NC(=O)Cn1ncc2c(c1=O)N(CC1CC1)C(=O)CS2` gave an RP-LC retention time of 757 s.

Turning to `CC1CCCN(S(=O)(=O)c2ccc(-n3cnc(C(=O)N4CCCCC4)c3)nc2)C1` (stereo not drawn), the RP-LC retention time was determined as 881 s.

`Cc1noc([C@@H]2CN(S(=O)(=O)c3c(C)noc3C)C[C@H]2C(N)=O)n1`: the RP-LC retention time stood at 667 s.

Regarding `Cc1sc(-c2cc(C(F)(F)F)[nH]n2)cc1S(=O)(=O)N1CCN(c2ccccn2)CC1`, the RP-LC retention time turned out to be 752 s.

On to `O=C(CSc1nnc2c3sc(N4CCCC4)nc3ncn12)Nc1ccc(F)cc1Cl`, for which the RP-LC retention time was determined as 869 s.

In turn, `CS(=O)(=O)N1CCC(C(=O)Nc2ccc(Cl)cc2)Oc2ccccc21` (stereo not drawn) had an RP-LC retention time of 924 s.

`Cc1noc(-c2ccc(-n3ncc(C(=O)N4CCCC4)c3C)nc2)n1` came in with an RP-LC retention time of 699 s.

Consider `CN(C)CCNC(=O)c1ccc(CS(=O)Cc2ccc(Cl)cc2)o1` (stereo not drawn), for which the RP-LC retention time amounted to 604 s.

As to `CC(=O)Nc1ccc(OCC(O)CNC(C)(C)CC(C)(C)C)cc1` (stereo not drawn), the RP-LC retention time came out at 562 s.

`CCCn1cc(S(=O)(=O)Nc2cccc(F)c2)c2cccnc21` returned an RP-LC retention time of 883 s.

Regarding `O=C(OCc1cccnc1)c1cn(-c2cccc(F)c2)c(=O)c2ccccc12`, the RP-LC retention time is 753 s.

For `O=C(CSCc1ccccc1)N1CCC(c2nnc(-c3ccco3)s2)CC1`, the RP-LC retention time came out at 837 s.

`O=C(N[C@H]1C[C@@H]2C[C@H]1CN2C(=O)NCCc1ccccc1)c1ccccc1` gave an RP-LC retention time of 734 s.

With `O=C(NC1CC1)c1ccc(OCC2CCCN(C(=O)c3ccc(F)cc3F)C2)cc1` (stereo not drawn), the RP-LC retention time was determined as 848 s.

`CC(C)N1C(=O)c2cccnc2Sc2cc(NC(=O)c3c(F)cccc3Cl)ccc21` came in with an RP-LC retention time of 973 s.

With `CCOc1ccc(NC(=O)CSc2cc(N3CCN(c4ccc(OC)cc4)CC3)ncn2)cc1`, the RP-LC retention time was 1160 s.

In the case of `COc1ccc(-c2csc3c(=O)n(CC(=O)OC(C)C)cnc23)cc1`, the RP-LC retention time is 939 s.

In the case of `Cc1cccc(NC(=O)N2CCC(C)(C(=O)NCc3ccc(F)cc3)CC2)c1C`, the RP-LC retention time was 834 s.

`COc1ccc(CNc2nc(NCc3ccc(OC)cc3)c3ncn(C(C)C)c3n2)cc1` showed an RP-LC retention time of 809 s.

`Cc1[nH]c(C(=O)N2CCN(c3ccccc3F)CC2)c(C)c1S(=O)(=O)N1CCC(C)CC1` had an RP-LC retention time of 1040 s.

On to `COc1ccccc1/C=C/c1nc(C#N)c(NCCN(C)C)o1`, for which the RP-LC retention time was 648 s.

Compound `CC(C)n1c(=O)c2ccccc2n(Cc2nc(-c3ccccc3Br)no2)c1=O` registered an RP-LC retention time of 1140 s.

For `COc1ccc2c(c1)c(CN1CCC(C(=O)NCCC3=CCCCC3)CC1)cn2C`, the RP-LC retention time came out at 730 s.

As to `Cc1ccc(Cl)cc1N1CCN(C(=O)c2c(C)oc3c2C2=NCCN2C=N3)CC1`, the RP-LC retention time came out at 705 s.

`CCCN1C(=O)COc2ccc(-c3csc(NC(=O)CCC4CCCCC4)n3)cc21` registered an RP-LC retention time of 1270 s.

Compound `Cc1cccc(CN2CC=C(C(=O)N3CCN(c4ccccc4C)CC3)CC2)c1` registered an RP-LC retention time of 726 s.

`COc1ccc2nc(NC(=O)C3CCN(c4nc(-c5ccc(OC)c(OC)c5)no4)CC3)sc2c1` displayed an RP-LC retention time of 933 s.

For the compound `COc1ccc(CCNC(=O)COc2cc(=O)n3ccccc3n2)cc1`, the RP-LC retention time came out at 631 s.

Consider `CCOC(=O)c1c(NC(=O)CSc2nc(=O)n3cccc(C)c3n2)sc2c1CCC2`, for which the RP-LC retention time stood at 950 s.

For the compound `N#Cc1cccc(NC(=O)C2CCCN(S(=O)(=O)c3c[nH]c(C(=O)N4CCCC4)c3)C2)c1` (stereo not drawn), the RP-LC retention time is 777 s.

`O=C(Cc1ccc(Cl)cc1)N1CCN(c2cc(-c3ccccc3)[nH]n2)CC1`: the RP-LC retention time was 841 s.

The compound `O=C(Cc1ccc(F)cc1)NC1CCN(c2cc(-c3cccs3)[nH]n2)C1` (stereo not drawn) showed an RP-LC retention time of 707 s.

For the compound `CON(C)C(=O)C1CN(C(=O)COc2ccccc2F)C1`, the RP-LC retention time amounted to 629 s.

The compound `CC(C)c1nnc(C2CN(C(=O)c3cccn3C)CC23CCOCC3)o1` (stereo not drawn) displayed an RP-LC retention time of 639 s.

Regarding `CCCCNc1nc(NCC)nc(-n2cnc(SC)n2)n1`, the RP-LC retention time stood at 880 s.

With `CCSc1nnc(-c2nn(C)c3c2CN(C(=O)c2c(F)cccc2Cl)CC3)n1C`, the RP-LC retention time was 768 s.

The compound `CCN1CCN(C(=O)CN2C(=O)C3CCCCN3c3ccc(S(=O)(=O)N4CCCC4)cc32)CC1` (stereo not drawn) returned an RP-LC retention time of 644 s.

`CCOc1ccc(-c2nc(CN(c3ccccc3)S(=O)(=O)c3cccs3)c(C)o2)cc1OC`: the RP-LC retention time came out at 1120 s.

`Cc1cc(C)n(-c2ccccc2Cl)c(=O)c1C(=O)O`: the RP-LC retention time came out at 787 s.

In turn, `COc1cccc(NC(=O)Cc2csc3nc(-c4ccc(OC)c(OC)c4)cn23)c1` yielded an RP-LC retention time of 780 s.

In turn, `O=c1c2cc(-c3cccs3)nn2cnn1Cc1nc(-c2ccc(OC(F)(F)F)cc2)no1` displayed an RP-LC retention time of 1180 s.

`O=C(c1cc(=O)c(OCc2ccc(F)cc2)co1)N1CCN(c2ncccn2)CC1` returned an RP-LC retention time of 696 s.

Regarding `CN1C(=O)C(CC(=O)NC2CCCCC2)Sc2ncccc21` (stereo not drawn), the RP-LC retention time is 703 s.
